Measurements published in ChEMBL document CHEMBL1143953, “Novel 2-phenylquinolin-7-yl-derived imidazo[1,5-a]pyrazines as potent insulin-like growth factor-I receptor (IGF-IR) inhibitors” (Bioorg Med Chem, 2008).

Columns and labels:
Cytochrome P450 3A4 = Cytochrome P450 3A4 (Homo sapiens, UniProt P08684); experiment: Inhibition of CYP3A4; format: ADME
[1] = target: Insulin-like growth factor 1 receptor (Homo sapiens, UniProt P08069)
Sequence of Insulin-like growth factor 1 receptor (P08069 31-736 limits assumed): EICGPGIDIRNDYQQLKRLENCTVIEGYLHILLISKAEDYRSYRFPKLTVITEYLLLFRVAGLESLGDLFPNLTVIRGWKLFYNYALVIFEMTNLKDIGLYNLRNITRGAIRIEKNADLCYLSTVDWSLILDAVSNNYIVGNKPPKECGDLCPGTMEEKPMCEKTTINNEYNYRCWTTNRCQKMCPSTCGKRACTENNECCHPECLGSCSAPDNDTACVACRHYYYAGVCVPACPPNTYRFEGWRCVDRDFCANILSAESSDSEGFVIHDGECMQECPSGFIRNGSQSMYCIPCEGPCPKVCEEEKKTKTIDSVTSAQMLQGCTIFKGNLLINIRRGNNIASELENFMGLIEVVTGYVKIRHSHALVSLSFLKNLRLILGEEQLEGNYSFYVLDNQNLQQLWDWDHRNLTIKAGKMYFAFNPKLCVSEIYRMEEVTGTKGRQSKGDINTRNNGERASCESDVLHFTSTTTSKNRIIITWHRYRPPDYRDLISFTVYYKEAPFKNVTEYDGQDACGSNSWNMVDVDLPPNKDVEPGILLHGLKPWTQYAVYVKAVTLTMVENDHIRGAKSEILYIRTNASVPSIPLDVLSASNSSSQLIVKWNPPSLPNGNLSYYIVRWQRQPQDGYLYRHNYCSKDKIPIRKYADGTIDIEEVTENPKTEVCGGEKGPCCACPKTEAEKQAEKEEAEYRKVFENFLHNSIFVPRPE
Sequence of Insulin-like growth factor 1 receptor (P08069 741-1367 limits assumed): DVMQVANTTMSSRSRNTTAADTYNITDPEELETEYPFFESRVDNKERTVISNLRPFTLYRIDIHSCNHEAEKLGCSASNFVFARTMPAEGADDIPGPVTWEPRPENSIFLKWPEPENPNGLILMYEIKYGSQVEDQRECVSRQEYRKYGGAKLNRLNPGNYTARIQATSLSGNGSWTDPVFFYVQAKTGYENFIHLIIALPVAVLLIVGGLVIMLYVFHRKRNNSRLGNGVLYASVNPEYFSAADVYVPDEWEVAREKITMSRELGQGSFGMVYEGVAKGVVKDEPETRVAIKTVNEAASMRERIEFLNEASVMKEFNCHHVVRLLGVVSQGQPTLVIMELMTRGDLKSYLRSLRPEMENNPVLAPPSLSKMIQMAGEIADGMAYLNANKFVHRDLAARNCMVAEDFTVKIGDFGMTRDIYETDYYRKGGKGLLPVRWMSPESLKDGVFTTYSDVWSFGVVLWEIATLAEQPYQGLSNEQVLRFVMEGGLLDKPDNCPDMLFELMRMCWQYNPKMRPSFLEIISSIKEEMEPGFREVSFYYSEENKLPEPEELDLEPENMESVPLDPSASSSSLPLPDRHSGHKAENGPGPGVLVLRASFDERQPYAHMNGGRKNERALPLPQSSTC
Description: Inhibition of human recombinant full length IGF1R expressed in mouse 3T3 cells

Sequence of Cytochrome P450 3A4 (P08684 whole entry): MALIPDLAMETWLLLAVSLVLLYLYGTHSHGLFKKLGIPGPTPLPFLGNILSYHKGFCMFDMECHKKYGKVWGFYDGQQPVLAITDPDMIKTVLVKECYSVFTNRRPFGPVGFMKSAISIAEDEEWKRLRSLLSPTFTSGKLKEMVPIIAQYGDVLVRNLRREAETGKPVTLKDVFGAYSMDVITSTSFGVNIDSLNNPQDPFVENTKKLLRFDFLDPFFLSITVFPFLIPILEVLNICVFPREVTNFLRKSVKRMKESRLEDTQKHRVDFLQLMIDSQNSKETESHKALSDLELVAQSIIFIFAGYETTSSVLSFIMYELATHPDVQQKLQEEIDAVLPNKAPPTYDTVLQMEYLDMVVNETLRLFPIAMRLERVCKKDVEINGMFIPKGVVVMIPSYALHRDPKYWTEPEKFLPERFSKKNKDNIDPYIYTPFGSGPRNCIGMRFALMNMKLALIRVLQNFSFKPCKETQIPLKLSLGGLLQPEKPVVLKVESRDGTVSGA

Row | SMILES | IC50 (Cytochrome P450 3A4) [µM] | IC50 [1] [µM]
1 | CN(C)C[C@H]1C[C@H](c2nc(-c3ccc4ccc(-c5ccccc5)nc4c3)c3c(N)nccn32)C1 | 15 | –
2 | Nc1nccn2c1c(-c1ccc3ccc(-c4ccccc4)nc3c1)nc2[C@H]1C[C@@H](N2CCCCC2)C1 | 7.5 | –
3 | CN(C)[C@H]1C[C@@H](c2nc(-c3ccc4ccc(-c5ccccc5)nc4c3)c3c(N)nccn32)C1 | 19 | –
4 | Nc1nccn2c1c(-c1ccc3ccc(-c4ccccc4)nc3c1)nc2[C@H]1C[C@H](CN2CCC2)C1 | 17 | 0.042
